From DBAASP
Values after ≈ are worked out from the molar mass of the structure shown.

Experiments:
Assay in all cases: ≥ marks a high value that may be exact or a test limit, other limits are often not marked, values filed in µg/mL are converted to µM
Micrococcus luteus A270 = test system: Micrococcus luteus A270
[1] = test system: Pseudomonas aeruginosa ATCC 27853
Candida albicans MDM8 = test system: Candida albicans MDM8
[2] = test system: Serratia marcescens ATCC 4112
[3] = test system: Bacillus megaterium ATCC 10778
[4] = test system: Staphylococcus aureus ATCC 29213
Escherichia coli SBS 363 = test system: Escherichia coli SBS 363
[5] = test system: Candida tropicalis IOC 4560
[6] = test system: Bacillus subtilis ATCC 6633
[7] = test system: Enterobacter cloacae beta-12
[8] = test system: Salmonella enterica subsp. enterica serovar Typhimurium C77-31
[9] = test system: Staphylococcus epidermidis ATCC 12228
[10] = test system: Streptococcus agalactiae CICC 10465
[11] = test system: Salmonella enterica subsp. enterica serovar Pullorum ATCC 7913
[12] = test system: Staphylococcus aureus ATCC 25923
[13] = test system: Salmonella enterica subsp. enterica serovar Typhimurium ATCC 14028
[14] = test system: Streptococcus thermophilus YM-C
Escherichia coli UB1005 = test system: Escherichia coli UB1005
Streptococcus agalactiae = test system: Streptococcus agalactiae
[15] = test system: Lacticaseibacillus rhamnosus 7469
[16] = test system: Escherichia coli ATCC 25922
Escherichia coli 078 = test system: Escherichia coli 078
Bacillus subtilis 168 = test system: Bacillus subtilis 168
[17] = test system: Candida albicans F7-39/IDE99
Pseudomonas aeruginosa = test system: Pseudomonas aeruginosa
[18] = test system: Micrococcus luteus CCM 144
Staphylococcus aureus = test system: Staphylococcus aureus
Escherichia coli B = test system: Escherichia coli B
Escherichia coli DC2 = test system: Escherichia coli DC2
[19] = test system: Staphylococcus epidermidis C621
[20] = test system: Corynebacterium xerosis C875

Structure (SMILES) | MIC [1] [µM] | MIC [4] [µM] | MIC [8] [µM] | MIC [9] [µM] | MIC [10] [µM] | MIC [11] [µM] | MIC [12] [µM] | MIC [13] [µM] | MIC [14] [µM] | MIC (Escherichia coli UB1005) [µM] | MIC (Streptococcus agalactiae) [µM] | MIC [15] [µM] | MIC [16] [µM] | MIC (Escherichia coli 078) [µM] | also measured
CC(C)C[C@H](NC(=O)[C@H](C)NC(=O)CNC(=O)[C@H](CC(C)C)NC(=O)[C@@H](N)Cc1ccccc1)C(=O)N[C@@H](Cc1c[nH]c2ccccc12)C(=O)N[C@@H](CC(N)=O)C(=O)N1CCC[C@H]1C(=O)N[C@@H](C)C(=O)N[C@@H](CCCCN)C(=O)N[C@@H](CO)C(=O)N[C@H](C(=O)N[C@@H](Cc1ccccc1)C(N)=O)C(C)C [FLGALWNPAKSVF] | > 50 | > 50 | – | – | – | – | – | – | – | – | – | – | – | – | MIC (Micrococcus luteus A270): 25 µM (≈ 36.2 µg/mL); MIC (Candida albicans MDM8): ≥ 50 µM; MIC [2]: 12.5 µM (≈ 18.1 µg/mL); MIC [3]: ≥ 50 µM; MIC (Escherichia coli SBS 363): ≥ 50 µM; MIC [5]: ≥ 50 µM; MIC [6]: ≥ 50 µM; MIC [7]: ≥ 50 µM
CC[C@H](C)[C@H](NC(=O)[C@H](CC(C)C)NC(=O)[C@@H](NC(=O)[C@@H](N)CC(=O)O)[C@@H](C)CC)C(=O)N[C@H](C(=O)N[C@H](C(=O)NCC(=O)NCC(=O)N[C@@H](CCCN=C(N)N)C(=O)N[C@@H](CCCN=C(N)N)C(=O)N[C@@H](CCCN=C(N)N)C(=O)N[C@@H](CCCN=C(N)N)C(=O)N[C@@H](CCCN=C(N)N)C(=O)N[C@@H](CCCN=C(N)N)C(=O)N[C@@H](CCCN=C(N)N)C(=O)N[C@@H](CCCN=C(N)N)C(N)=O)C(C)C)[C@@H](C)CC [DILIIVGGRRRRRRRR] | 8 (≈ 16.4 µg/mL) | 2 (≈ 4.1 µg/mL) | ≥ 64 | 8 (≈ 16.4 µg/mL) | 4 (≈ 8.19 µg/mL) | 8 (≈ 16.4 µg/mL) | 4 (≈ 8.19 µg/mL) | > 64 | ≥ 64 | 8 (≈ 16.4 µg/mL) | 5.66 (≈ 11.6 µg/mL) | ≥ 64 | 4 (≈ 8.19 µg/mL) | ≥ 32 | –
CC[C@H](C)[C@H](NC(=O)[C@H](CCCCN)NC(=O)CNC(=O)[C@H](Cc1c[nH]c2ccccc12)NC(=O)[C@H](CC(N)=O)NC(=O)[C@@H](N)CC(C)C)C(=O)N[C@@H](CC(C)C)C(=O)N[C@@H](CCCCN)C(=O)N[C@@H](Cc1cnc[nH]1)C(=O)N[C@H](C(=O)N[C@H](C(=O)N[C@@H](CCCCN)C(N)=O)[C@@H](C)CC)[C@@H](C)CC [LNWGKILKHIIK] | – | – | – | – | – | – | – | – | – | – | – | – | – | – | MIC (Bacillus subtilis 168): 1.7 µM (≈ 2.49 µg/mL); MIC [17]: 7.3 µM (≈ 10.7 µg/mL); MIC (Pseudomonas aeruginosa): 20.8 µM (≈ 30.4 µg/mL); MIC [18]: 2.2 µM (≈ 3.22 µg/mL); MIC (Staphylococcus aureus): 8.7 µM (≈ 12.7 µg/mL); MIC (Escherichia coli B): 4 µM (≈ 5.85 µg/mL)
CC[C@H](C)[C@H](NC(=O)[C@H](CC(C)C)NC(=O)[C@H](CCCCN)NC(=O)[C@@H](NC(=O)[C@@H](NC(=O)[C@H](Cc1cnc[nH]1)NC(=O)[C@@H]1CCCN1C(=O)[C@H](CC(C)C)NC(=O)[C@@H](NC(=O)[C@H](CCCCN)NC(=O)[C@H](C)NC(=O)[C@H](CC(C)C)NC(=O)[C@H](CC(C)C)NC(=O)[C@H](CCCCN)NC(=O)[C@H](C)NC(=O)[C@H](CCSC)NC(=O)CN)C(C)C)C(C)C)C(C)C)C(=O)N[C@@H](CCCCN)C(=O)O [GMAKLLAKVLPHVVKLIK] | – | – | – | – | – | – | – | – | – | – | – | – | – | – | MIC (Bacillus subtilis 168): 1.3 µM (≈ 2.55 µg/mL); MIC [17]: 13.1 µM (≈ 25.7 µg/mL); MIC (Pseudomonas aeruginosa): 17.5 µM (≈ 34.3 µg/mL); MIC [18]: 0.8 µM (≈ 1.57 µg/mL); MIC (Staphylococcus aureus): 2.7 µM (≈ 5.29 µg/mL); MIC (Escherichia coli B): 1.5 µM (≈ 2.94 µg/mL)
CC[C@H](C)[C@H](NC(=O)[C@H](CC(C)C)NC(=O)[C@@H](NC(=O)[C@@H](N)CC(=O)O)[C@@H](C)CC)C(=O)N[C@H](C(=O)N[C@H](C(=O)NCC(=O)NCC(=O)N[C@@H](CCCCN)C(=O)N[C@@H](CC(=O)O)C(=O)N[C@@H](CCCN=C(N)N)C(=O)N[C@@H](CCCCN)C(=O)N[C@@H](CCCCN)C(=O)N[C@@H](CCCN=C(N)N)C(=O)N[C@@H](CCCN=C(N)N)C(=O)N[C@@H](CCCN=C(N)N)C(N)=O)C(C)C)[C@@H](C)CC [DILIIVGGKDRKKRRR] | > 64 | 4 (≈ 7.69 µg/mL) | ≥ 64 | 4 (≈ 7.69 µg/mL) | 4 (≈ 7.69 µg/mL) | 8 (≈ 15.4 µg/mL) | > 64 | > 64 | ≥ 64 | ≥ 32 | 8 (≈ 15.4 µg/mL) | ≥ 64 | 8 (≈ 15.4 µg/mL) | ≥ 32 | –
CC[C@H](C)[C@H](NC(=O)[C@H](CC(C)C)NC(=O)[C@@H](NC(=O)[C@@H](N)CC(=O)O)[C@@H](C)CC)C(=O)N[C@H](C(=O)N[C@H](C(=O)NCC(=O)NCC(=O)N[C@@H](CCCCN)C(=O)N[C@@H](CCCN=C(N)N)C(=O)N[C@@H](CCCN=C(N)N)C(=O)N[C@@H](CCCN=C(N)N)C(N)=O)C(C)C)[C@@H](C)CC [DILIIVGGKRRR] | > 64 | > 64 | ≥ 64 | > 64 | 8 (≈ 11.2 µg/mL) | ≥ 64 | > 64 | > 64 | ≥ 64 | ≥ 64 | 5.66 (≈ 7.89 µg/mL) | ≥ 64 | > 64 | ≥ 64 | –

The next lines start with results.

MIC [1] [µM] | MIC [4] [µM] | MIC [8] [µM] | MIC [9] [µM] | MIC [10] [µM] | MIC [11] [µM] | MIC [12] [µM] | MIC [13] [µM] | MIC [14] [µM] | MIC (Escherichia coli UB1005) [µM] | MIC (Streptococcus agalactiae) [µM] | MIC [15] [µM] | MIC [16] [µM] | MIC (Escherichia coli 078) [µM] | Structure (SMILES) | also measured
– | – | – | – | – | – | – | – | – | ≥ 32 | – | – | – | – | CC[C@H](C)[C@H](NC(=O)[C@H](C)NC(=O)[C@H](C)NC(=O)[C@H](C)NC(=O)[C@H](CCCCN)NC(=O)[C@@H](N)CCCCN)C(=O)N[C@@H](C)C(=O)N[C@@H](C)C(=O)N[C@@H](C)C(=O)N[C@@H](C)C(=O)N[C@@H](C)C(=O)N[C@H](C(=O)N[C@@H](C)C(=O)N[C@@H](C)C(=O)N[C@@H](Cc1c[nH]c2ccccc12)C(=O)N[C@@H](C)C(=O)N[C@@H](C)C(=O)N[C@H](C(=O)N[C@@H](C)C(=O)N[C@@H](C)C(=O)N[C@@H](C)C(=O)N[C@@H](CCCCN)C(=O)N[C@@H](CCCCN)C(=O)N[C@@H](CCCCN)C(=O)N[C@@H](CCCCN)C(N)=O)[C@@H](C)CC)[C@@H](C)CC [KKAAAIAAAAAIAAWAAIAAAKKKK] | MIC (Escherichia coli DC2): 16 µM (≈ 38 µg/mL); MIC [19]: 4 µM (≈ 9.51 µg/mL); MIC [20]: 0.25 µM (≈ 0.594 µg/mL)
> 64 | > 64 | ≥ 64 | > 64 | ≥ 64 | ≥ 64 | > 64 | > 64 | ≥ 64 | ≥ 64 | ≥ 64 | ≥ 64 | > 64 | ≥ 64 | NCCCC[C@H](NC(=O)[C@H](CCCCN)NC(=O)[C@H](CCCN=C(N)N)NC(=O)[C@H](CCC(=O)O)NC(=O)[C@@H](N)CCCCN)C(=O)N[C@@H](CCCN=C(N)N)C(=O)N[C@@H](CCCN=C(N)N)C(=O)N[C@@H](CCCN=C(N)N)C(N)=O [KERKKRRR] | –
